ChEMBL document CHEMBL1781926, “Synthesis of 1-naphtylpiperazine derivatives as serotoninergic ligands and their evaluation as antiproliferative agents” (Eur J Med Chem, 2011)
Active and inactive are the calls of the source. The rule behind the calls is not given here.

Key:
PC-3 [1] = experiment: Induction of apoptosis in human PC3 cells at 15 uM after 48 hrs using propidium iodide staining by flow cytometry (reference value: 0.84 %); assay type: functional
PC-3 [2] = experiment: Induction of apoptosis human PC3 cells assessed as externalization of phosphatidylserine on the outer layer of plasma membrane at 15 uM after 24 to 48 hrs using Annexin-V-FITC staining by flow cytometry; assay type: functional, cell-based
PC-3 [3] = experiment: Cell cycle arrest in human PC3 cells assessed as accumulation at G1 phase at 15 uM after 72 hrs using propidium iodide staining by flow cytometry (reference value: 42.19 %); assay type: functional
D(2) dopamine receptor = D(2) dopamine receptor (Rattus norvegicus, UniProt P61169); experiment: Displacement of [3H]spiperone from dopamine D2 receptor in rat corpora striatum homogenates after 15 mins by liquid scintillation counting
PC-3 [4] = experiment: Cell cycle arrest in human PC3 cells assessed as accumulation at G2 phase at 15 uM after 24 hrs using propidium iodide staining by flow cytometry (reference value: 18.19 %); assay type: functional
PC-3 [5] = experiment: Cell cycle arrest in human PC3 cells assessed as accumulation at G1 phase at 15 uM after 24 hrs using propidium iodide staining by flow cytometry (reference value: 46.97 %); assay type: functional
PC-3 [6] = experiment: Cell cycle arrest in human PC3 cells assessed as accumulation at G2 phase at 15 uM after 48 hrs using propidium iodide staining by flow cytometry (reference value: 13.36 %); assay type: functional
PC-3 [7] = experiment: Cell cycle arrest in human PC3 cells assessed as accumulation at G2 phase at 15 uM after 72 hrs using propidium iodide staining by flow cytometry (reference value: 20.18 %); assay type: functional
PC-3 [8] = experiment: Cell cycle arrest in human PC3 cells assessed as accumulation at S phase at 15 uM after 48 hrs using propidium iodide staining by flow cytometry (reference value: 38.16 %); assay type: functional
PC-3 [9] = experiment: Cell cycle arrest in human PC3 cells assessed as accumulation at G1 phase at 15 uM after 48 hrs using propidium iodide staining by flow cytometry (reference value: 54.14 %); assay type: functional
PC-3 [10] = experiment: Induction of apoptosis in human PC3 cells at 15 uM after 24 hrs using propidium iodide staining by flow cytometry (reference value: 1.27 %); assay type: functional
PC-3 [11] = experiment: Cell cycle arrest in human PC3 cells assessed as accumulation at S phase at 15 uM after 72 hrs using propidium iodide staining by flow cytometry (reference value: 37.73 %); assay type: functional
PC-3 [12] = experiment: Cell cycle arrest in human PC3 cells assessed as accumulation at S phase at 15 uM after 24 hrs using propidium iodide staining by flow cytometry (reference value: 34.84 %); assay type: functional
[13] = target: 5-hydroxytryptamine receptor 2A (Rattus norvegicus, UniProt P14842); experiment: Displacement of [3H]Ketanserin from 5HT2A receptor in Sprague-Dawley rat frontal cortical homogenates after 15 mins
[14] = target: T1, Adrenergic receptor alpha-1 (Rattus norvegicus, UniProt P15823+P23944+P43140); experiment: Displacement [3H]prazosin from alpha1 adrenergic receptor in rat brain cortex homogenates after 30 mins by liquid scintillation counting; assay type: tissue-based
T1 sequence (P15823 whole entry): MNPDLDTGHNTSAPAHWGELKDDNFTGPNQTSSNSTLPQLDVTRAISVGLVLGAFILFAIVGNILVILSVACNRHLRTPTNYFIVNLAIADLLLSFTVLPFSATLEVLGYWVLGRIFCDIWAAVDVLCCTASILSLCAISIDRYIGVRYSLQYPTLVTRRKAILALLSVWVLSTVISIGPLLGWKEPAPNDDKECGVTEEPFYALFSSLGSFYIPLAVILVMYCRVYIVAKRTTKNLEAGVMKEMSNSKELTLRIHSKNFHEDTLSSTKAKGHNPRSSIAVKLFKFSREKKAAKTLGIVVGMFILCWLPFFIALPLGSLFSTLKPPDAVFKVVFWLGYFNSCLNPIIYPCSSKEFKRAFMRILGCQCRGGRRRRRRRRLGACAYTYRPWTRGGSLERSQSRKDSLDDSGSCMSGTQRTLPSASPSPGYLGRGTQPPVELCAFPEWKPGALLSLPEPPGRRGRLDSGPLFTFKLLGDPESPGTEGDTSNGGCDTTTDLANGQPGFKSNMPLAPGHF
T1 sequence (P23944 whole entry): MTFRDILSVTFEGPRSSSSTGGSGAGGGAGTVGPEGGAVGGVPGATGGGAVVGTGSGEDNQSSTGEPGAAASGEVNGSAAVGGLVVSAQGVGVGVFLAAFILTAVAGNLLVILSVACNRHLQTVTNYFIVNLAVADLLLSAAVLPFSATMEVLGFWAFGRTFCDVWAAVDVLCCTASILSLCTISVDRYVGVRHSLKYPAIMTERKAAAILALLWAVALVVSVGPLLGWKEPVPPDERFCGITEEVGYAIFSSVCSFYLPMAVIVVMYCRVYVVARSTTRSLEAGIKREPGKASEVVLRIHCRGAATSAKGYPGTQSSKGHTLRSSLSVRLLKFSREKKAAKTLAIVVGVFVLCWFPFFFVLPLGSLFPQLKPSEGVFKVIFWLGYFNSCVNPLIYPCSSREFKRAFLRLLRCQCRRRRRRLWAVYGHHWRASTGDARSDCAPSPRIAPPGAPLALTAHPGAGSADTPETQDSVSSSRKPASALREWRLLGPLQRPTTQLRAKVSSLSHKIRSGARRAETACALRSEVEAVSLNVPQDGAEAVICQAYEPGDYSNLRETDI
T1 sequence (P43140 whole entry): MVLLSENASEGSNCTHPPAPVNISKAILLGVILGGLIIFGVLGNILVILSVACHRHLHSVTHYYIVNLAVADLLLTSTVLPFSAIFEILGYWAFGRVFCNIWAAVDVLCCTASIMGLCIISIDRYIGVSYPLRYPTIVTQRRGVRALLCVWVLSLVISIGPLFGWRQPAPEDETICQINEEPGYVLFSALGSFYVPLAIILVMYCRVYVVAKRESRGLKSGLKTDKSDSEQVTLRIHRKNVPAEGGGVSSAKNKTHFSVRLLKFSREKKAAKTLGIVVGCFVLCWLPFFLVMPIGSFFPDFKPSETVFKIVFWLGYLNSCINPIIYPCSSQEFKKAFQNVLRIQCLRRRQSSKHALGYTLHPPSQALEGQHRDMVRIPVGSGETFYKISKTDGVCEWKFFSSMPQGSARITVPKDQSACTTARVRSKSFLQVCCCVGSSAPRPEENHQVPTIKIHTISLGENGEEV

PC-3 [15] = experiment: Induction of apoptosis in human PC3 cells at 15 uM after 72 hrs using propidium iodide staining by flow cytometry (reference value: 1.79 %); assay type: functional

D(2) dopamine receptor, sequence (P61169 whole entry): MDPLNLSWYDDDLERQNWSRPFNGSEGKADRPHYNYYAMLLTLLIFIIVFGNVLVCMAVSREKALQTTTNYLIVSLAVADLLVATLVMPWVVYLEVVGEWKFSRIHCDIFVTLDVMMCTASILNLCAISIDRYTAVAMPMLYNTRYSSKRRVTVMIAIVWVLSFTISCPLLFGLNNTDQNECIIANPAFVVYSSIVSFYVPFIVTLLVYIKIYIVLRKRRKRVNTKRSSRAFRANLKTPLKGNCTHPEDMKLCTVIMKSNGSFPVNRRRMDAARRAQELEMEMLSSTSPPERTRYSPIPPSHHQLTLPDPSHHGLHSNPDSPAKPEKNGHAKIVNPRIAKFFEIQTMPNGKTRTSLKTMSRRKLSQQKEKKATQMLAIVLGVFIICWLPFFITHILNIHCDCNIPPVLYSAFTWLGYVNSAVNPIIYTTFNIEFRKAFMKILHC
5-hydroxytryptamine receptor 2A, sequence (P14842 whole entry): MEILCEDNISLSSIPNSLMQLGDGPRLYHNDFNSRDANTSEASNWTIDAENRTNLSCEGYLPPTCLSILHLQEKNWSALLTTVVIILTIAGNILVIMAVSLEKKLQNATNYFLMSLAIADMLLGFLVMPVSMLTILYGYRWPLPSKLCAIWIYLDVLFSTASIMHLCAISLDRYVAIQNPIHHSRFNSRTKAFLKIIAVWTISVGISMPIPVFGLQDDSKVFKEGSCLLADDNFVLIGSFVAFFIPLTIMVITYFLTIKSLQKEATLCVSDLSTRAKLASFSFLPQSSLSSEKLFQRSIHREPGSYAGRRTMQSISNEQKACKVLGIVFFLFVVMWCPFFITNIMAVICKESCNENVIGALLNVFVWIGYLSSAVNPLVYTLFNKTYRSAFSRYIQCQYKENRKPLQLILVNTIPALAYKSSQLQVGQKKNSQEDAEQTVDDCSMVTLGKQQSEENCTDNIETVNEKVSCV

| SMILES | Ki (D(2) dopamine receptor) | Ki [13] | Ki [14] | Activity (PC-3 [1]) | Activity (PC-3 [2]) | Activity (PC-3 [3]) | Activity (PC-3 [4]) | Activity (PC-3 [5]) | Activity (PC-3 [6]) | Activity (PC-3 [7]) | Activity (PC-3 [8]) | Activity (PC-3 [9]) | Activity (PC-3 [10]) | Activity (PC-3 [11]) | Activity (PC-3 [12]) | Activity (PC-3 [15]) |
| --- | --- | --- | --- | --- | --- | --- | --- | --- | --- | --- | --- | --- | --- | --- | --- | --- |
| O=c1c2ccccc2nnn1CCCN1CCN(c2cccc3ccccc23)CC1 | > 10000 nM | 127 nM | 562 nM | 2.12% | Active | 43.11% | 27.3% | 37.55% | 22.29% | 28.65% | 33.58% | 44.13% | 1.71% | 28.24% | 35.15% | 2.25% |
| O=c1c2ccccc2nnn1CCN1CCN(c2cccc3ccccc23)CC1 | > 10000 nM | 5.29 nM | 112 nM | 2.79% | Active | 45.86% | 24.17% | 38.38% | 24.08% | 24.19% | 34.56% | 41.36% | 2.17% | 29.95% | 37.45% | 2.17% |
| N#C/N=C(\NCCCN1CCN(c2cccc3ccccc23)CC1)c1ccccn1 | > 10000 nM | 224 nM | > 10000 nM | – | – | – | – | – | – | – | – | – | – | – | – | – |
| O=c1c2ccccc2nnn1OCCN1CCN(c2cccc3ccccc23)CC1 | > 10000 nM | 1320 nM | > 10000 nM | – | – | – | – | – | – | – | – | – | – | – | – | – |
| O=C1C2C3C=CC(C3)C2C(=O)N1OCCN1CCN(c2cccc3ccccc23)CC1 (configuration not stated) | > 10000 nM | 113 nM | > 10000 nM | – | – | – | – | – | – | – | – | – | – | – | – | – |

The next molecules have a lower Ki (D(2) dopamine receptor) than those just listed; values first:

| Ki (D(2) dopamine receptor) | Ki [13] | Ki [14] | SMILES | Activity (PC-3 [1]) | Activity (PC-3 [2]) | Activity (PC-3 [3]) | Activity (PC-3 [4]) | Activity (PC-3 [5]) | Activity (PC-3 [6]) | Activity (PC-3 [7]) | Activity (PC-3 [8]) | Activity (PC-3 [9]) | Activity (PC-3 [10]) | Activity (PC-3 [11]) | Activity (PC-3 [12]) | Activity (PC-3 [15]) |
| --- | --- | --- | --- | --- | --- | --- | --- | --- | --- | --- | --- | --- | --- | --- | --- | --- |
| 263 nM | 91.8 nM | > 10000 nM | O=C1C2C3C=CC(C3)C2C(=O)N1OCCCN1CCN(c2cccc3ccccc23)CC1 (configuration not stated) | – | – | – | – | – | – | – | – | – | – | – | – | – |
| 85.4 nM | 721 nM | 800 nM | O=c1c2ccccc2nnn1OCCCN1CCN(c2cccc3ccccc23)CC1 | – | – | – | – | – | – | – | – | – | – | – | – | – |
